Assay results taken from patent publication US11332463B2, “Spiropiperidine allosteric modulators of nicotinic acetylcholine receptors” (Merck Sharp & Dohme Corp., priority 2018, dated 2022).
Where two headings read alike, the source gives them in different places.

Molecular target: T1, human α7 nicotinic acetylcholine receptor (HEK cell line stably expressing human RIC-3 and human α7) (Homo sapiens, UniProt P36544)
T1 construct: host or cells: HEK cell line (PrecisION hnAChR α7/RIC-3)
Assay: Automated patch-clamp electrophysiology functional assay (Assay A), IonFlux HT, whole-cell population patch
Format: cell-based
Description: The α7 nAChR positive allosteric modulator (PAM) activity of the present compounds may be tested using assays known in the art. […] The assay was performed using the IonFlux HT in a whole-cell, population patch configuration. See Golden et al. Assay Drug Dev. Technol. […] The compounds were assessed for their ability to modulate the function of the human 7 nAChR stably expressed in a HEK cell line both in the presence, and in the absence of the natural 7 agonist acetylcholine. By performing a series of such measurements at different concentrations, the effective concentration of the 7 nAChR PAMs (EC50) was determined. See Spencer et al. Assay Drug Dev. Technol.
Direct activation of α7 (agonism), and potentiation of acetylcholine-evoked 7 currents was determined as follows:
Automated patch-clamp electrophysiology was performed using the IonFlux HT (Fluxion Biosciences Inc., San Francisco, Calif.) in the whole-cell, population patch configuration. Test compounds were assessed for their ability to modulate the function of the α7 nicotinic acetylcholine receptor both in the presence, and in the absence of the natural α7 agonist acetylcholine. […] Immediately prior to assay, cells were detached by first aspirating growth media, rinsing with Dulbecco's phosphate buffered saline, and then adding 10 mL of Accutase (Innovative Cell Technologies, San Diego, Calif.) to the flask and then incubating at 37° C. for 5 minutes. Detached cells were then recovered by the addition of 40 mL of CHO-serum-free media supplemented with 25 mM HEPES, and rocked gently in a 50 mL conical tube for 20 minutes prior to patch-clamp assay. After recovery, cells were pelleted by centrifugation at 1,000 RPM for 1 minute in a compact bench top centrifuge; recovery media was aspirated and cells were resuspended in external recording solution (150 mM NaCl, 5 mM KCl, 2 mM CaCl2), 1 mM MgCl2, 10 mM HEPES, 12 mM dextrose) to a density of 5.0×10^6 cells/mL. The cell suspension was added to the cell inlet wells on an IonFlux HT population patch plate which had previously been rinsed and primed with deionized H2O. Test compounds were serially diluted in DMSO and then resuspended to the final test concentration in external recording solution, with, or without 40 μM acetylcholine added to the external recording solution; test compounds were then transferred to the IonFlux HT population patch plate. Internal recording solution (110 mM TrisPO4, 28 mM TrisBase, 0.1 mM CaCl2, 2 mM MgCl2, 11 mM EGTA, 4 mM MgATP) was added to the internal recording solution inlet wells on the IonFlux HT patch plate previously loaded with cells and test compounds, and the plate loaded into the IonFlux HT instrument. A protocol was executed on the IonFlux HT to trap the cells, break into the cells, and establish the whole-cell recording configuration; cells were voltage-clamped at a holding potential of −60 mV for the duration of the experiment, all experiments were conducted at room temperature, and the IonFlux HT injection pressure was 8 psi for solution applications. Upon establishing the whole-cell configuration, external recording solution was perfused into the recording chambers for 120 seconds and then 40 μM acetylcholine was applied for 1 second and immediately washed off with external recording solution for 60 seconds. The 40 μM acetylcholine-evoked α7 current served as the current response to which subsequent test compound effects, in the presence, or in the absence of 40 μM acetylcholine would be quantified relative to. Next, test compounds were evaluated at multiple concentrations for their ability to induce, or modulate 7 current responses; three concentrations of test compound were evaluated in ascending dose fashion per recording.

[1] = HEK cells expressing human α7/RIC-3, test compound with or without 40 μM acetylcholine, holding potential −60 mV, room temperature, read-out: α7 nAChR Potency
[2] = automated patch-clamp electrophysiology functional assay (Assay A), read-out: α7 nAChR EC50

T1 sequence (P36544 23-502): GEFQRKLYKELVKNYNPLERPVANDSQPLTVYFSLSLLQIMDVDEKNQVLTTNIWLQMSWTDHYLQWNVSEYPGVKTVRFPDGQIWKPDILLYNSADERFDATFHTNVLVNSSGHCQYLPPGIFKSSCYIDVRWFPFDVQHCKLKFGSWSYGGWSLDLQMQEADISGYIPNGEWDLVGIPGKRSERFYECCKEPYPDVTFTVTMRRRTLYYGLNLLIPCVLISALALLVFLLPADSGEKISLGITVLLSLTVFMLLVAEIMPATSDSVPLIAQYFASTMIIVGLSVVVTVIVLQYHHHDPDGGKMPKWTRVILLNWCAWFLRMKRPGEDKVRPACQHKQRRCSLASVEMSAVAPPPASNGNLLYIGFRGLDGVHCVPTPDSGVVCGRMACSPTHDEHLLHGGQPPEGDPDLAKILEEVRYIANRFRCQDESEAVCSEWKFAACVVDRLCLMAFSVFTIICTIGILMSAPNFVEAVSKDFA

EC50 [1] [nM] | EC50 [2] [nM] | Structure (SMILES)
500 to 5000 | 670 | CS(=O)(=O)N1CCC2(CC1)C(c1nc(-c3ccc(F)cc3C(F)(F)F)no1)C2(F)F (stereo not drawn) [Example 21, 1,1-Difluoro-2-{3-[4-fluoro-2-(trifluoromethyl)phenyl]-1,2,4-oxadiazol-5-yl}-6-(methylsulfonyl)-6-azaspiro[2.5]octane]
< 100 | 99 | Cc1nn(C)c(-c2nc([C@@H]3C(F)(F)C34CCN(S(N)(=O)=O)CC4)no2)c1C [Example 22, (2R)-1,1-Difluoro-2-[5-(1,3,4-trimethyl-1H-pyrazol-5-yl)-1,2,4-oxadiazol-3-yl]-6-azaspiro[2.5]octane-6-sulfonamide]
500 to 5000 | 1400 | NS(=O)(=O)N1CCC2(CC1)C[C@H]2c1nc(-c2conc2C2CC2)co1 [Example 23, (1R)-1-[4-(3-Cyclopropylisoxazol-4-yl)-1,3-oxazol-2-yl]-6-azaspiro[2.5]octane-6-sulfonamide]
< 100 | 90 | NS(=O)(=O)N1CCC2(CC1)[C@H](c1coc(-c3ccc(F)cc3C(F)(F)F)n1)C2(F)F [Example 24, (2R)-1,1-Difluoro-2-{2-[4-fluoro-2-(trifluoromethyl)phenyl]-1,3-oxazol-4-yl}-6-azaspiro[2.5]octane-6-sulfonamide]
100 to 500 | 210 | Cc1cn(C2CC2)nc1-c1nc([C@@H]2C(F)(F)C23CCN(S(N)(=O)=O)CC3)no1 [Example 25, (2R)-2-[5-(1-Cyclopropyl-4-methyl-1H-pyrazol-3-yl)-1,2,4-oxadiazol-3-yl]-1,1-difluoro-6-azaspiro[2.5]octane-6-sulfonamide]
500 to 5000 | 4000 | CCn1nc(-c2nc([C@@H]3CC34CCN(S(N)(=O)=O)CC4)no2)cc1C [Example 27, (1R)-1-[5-(1-Ethyl-5-methyl-TH-pyrazol-3-yl)-1,2,4-oxadiazol-3-yl]-6-azaspiro[2.5]octane-6-sulfonamide]
100 to 500 | 120 | Cc1onc(C2CC2)c1-c1cnc([C@@H]2CC23CCN(S(N)(=O)=O)CC3)o1 [Example 28, (1R)-1-[5-(3-Cyclopropyl-5-methylisoxazol-4-yl)-1,3-oxazol-2-yl]-6-azaspiro[2.5]octane-6-sulfonamide]
100 to 500 | 170 | NS(=O)(=O)N1CCC2(CC1)[C@H](c1noc(-c3cc(C(F)(F)F)nn3C3CC3)n1)C2(F)F [Example 29, (2R)-2-{5-[1-Cyclopropyl-3-(trifluoromethyl)-1H-pyrazol-5-yl]-1,2,4-oxadiazol-3-yl}-1,1-difluoro-6-azaspiro[2.5]octane-6-sulfonamide]
< 100 | 2.4 | Cc1ccc(C2CC2)c(-c2nc([C@@H]3C(F)(F)C34CCN(S(N)(=O)=O)CC4)no2)c1 [Example 30, (2R)-2-[5-(2-Cyclopropyl-5-methylphenyl)-1,2,4-oxadiazol-3-yl]-1,1-difluoro-6-azaspiro[2.5]octane-6-sulfonamide]
100 to 500 | 130 | NS(=O)(=O)N1CCC2(CC1)[C@H](c1coc(-c3conc3C3CC3)n1)C2(F)F [Example 31, (2R)-2-[2-(3-Cyclopropylisoxazol-4-yl)-1,3-oxazol-4-yl]-1,1-difluoro-6-azaspiro[2.5]octane-6-sulfonamide]
100 to 500 | 390 | Cc1ccccc1-c1nc([C@@H]2CC23CCN(S(N)(=O)=O)CC3)no1 [Example 33, (1R)-1-[5-(2-Methylphenyl)-1,2,4-oxadiazol-3-yl]-6-azaspiro[2.5]octane-6-sulfonamide]
< 100 | 4.5 | Cc1ccc(C)c(-c2nc([C@@H]3C(F)(F)C34CCN(S(N)(=O)=O)CC4)no2)c1 [Example 34, (2R)-2-[5-(2,5-Dimethylphenyl)-1,2,4-oxadiazol-3-yl]-1,1-difluoro-6-azaspiro[2.5]octane-6-sulfonamide]
100 to 500 | 150 | NS(=O)(=O)N1CCC2(CC1)[C@H](c1coc(-c3ccnc(OC(F)F)c3)n1)C2(F)F [Example 35, (2R)-2-{2-[2-(Difluoromethoxy)pyridin-4-yl]-1,3-oxazol-4-yl}-1,1-difluoro-6-azaspiro[2.5]octane-6-sulfonamide]
100 to 500 | 490 | COc1ccc(Cl)cc1-c1noc([C@@H]2CC23CCN(S(N)(=O)=O)CC3)n1 [Example A1]
100 to 500 | 320 | NS(=O)(=O)N1CCC2(CC1)C(c1nc(-c3ccccc3)no1)C2(F)F (stereo not drawn) [Example A2]
500 to 5000 | 850 | NS(=O)(=O)N1CCC2(CC1)C[C@H]2c1nc(-c2cc(F)ccc2C(F)(F)F)no1 [Example A4]
500 to 5000 | 1100 | NS(=O)(=O)N1CCC2(CC1)CC2c1nc(-c2conc2C2CC2)no1 (stereo not drawn) [Example C4]
< 100 | 11 | Cc1onc(C2CC2)c1-c1noc(C2C(F)(F)C23CCN(S(N)(=O)=O)CC3)n1 (stereo not drawn) [Example C5]
100 to 500 | 420 | NS(=O)(=O)N1CCC2(CC1)C(c1nc(C3CCCCC3)no1)C2(F)F (stereo not drawn) [Example C6]

EC50 [1] [nM] | EC50 [2] [nM] | Structure (SMILES)
500 to 5000 | 1100 | Cc1ncccc1-c1noc(C2C(F)(F)C23CCN(S(N)(=O)=O)CC3)n1 (stereo not drawn) [Example C7]
500 to 5000 | 1300 | NS(=O)(=O)N1CCC2(CC1)C(c1nc(-c3ccnc(C(F)(F)F)c3)no1)C2(F)F (stereo not drawn) [Example C8]
100 to 500 | 310 | NS(=O)(=O)N1CCC2(CC1)C(c1nc(-c3ccnc(OC(F)F)c3)no1)C2(F)F (stereo not drawn) [Example C9]
< 100 | 82 | Cc1cnn(C2CC2)c1-c1noc(C2C(F)(F)C23CCN(S(N)(=O)=O)CC3)n1 (stereo not drawn) [Example C10]
500 to 5000 | 2500 | NS(=O)(=O)N1CCC2(CC1)C(c1nc(-c3ccn4ccnc4c3)no1)C2(F)F (stereo not drawn) [Example C11]
100 to 500 | 170 | NS(=O)(=O)N1CCC2(CC1)CC2c1nc(-c2c(C(F)(F)F)noc2C2CC2)no1 (stereo not drawn) [Example C12]
100 to 500 | 150 | NS(=O)(=O)N1CCC2(CC1)C(c1nc(-c3ccnn3C3CC3)no1)C2(F)F (stereo not drawn) [Example C14]
< 100 | – | NS(=O)(=O)N1CCC2(CC1)C(c1nc(-c3c(C4CC4)noc3C(F)(F)F)no1)C2(F)F (stereo not drawn) [Example C15]
< 100 | 37 | NS(=O)(=O)N1CCC2(CC1)C(c1nc(-c3c(C(F)(F)F)noc3C3CC3)no1)C2(F)F (stereo not drawn) [Example C16]
500 to 5000 | 520 | NS(=O)(=O)N1CCC2(CC1)C[C@H]2c1noc(-c2cccc(C(F)(F)F)c2)n1 [Example D1]
5000 to 50000 | 5300 | N#Cc1ccccc1-c1nc([C@@H]2CC23CCN(S(N)(=O)=O)CC3)no1 [Example D3]
100 to 500 | 190 | NS(=O)(=O)N1CCC2(CC1)C[C@H]2c1noc(-c2ccccc2OC(F)F)n1 [Example D4]
100 to 500 | – | NS(=O)(=O)N1CCC2(CC1)C[C@H]2c1noc(-c2cc(Br)ccc2C(F)(F)F)n1 [Example D6]
500 to 5000 | 590 | NS(=O)(=O)N1CCC2(CC1)C[C@H]2c1noc(-c2ccc(Cl)cc2C(F)(F)F)n1 [Example D7]
500 to 5000 | 1300 | NS(=O)(=O)N1CCC2(CC1)C[C@H]2c1noc(-c2ccccc2)n1 [Example D8]
500 to 5000 | 820 | NS(=O)(=O)N1CCC2(CC1)C[C@H]2c1noc(-c2ccc(C(F)(F)F)cc2OC(F)F)n1 [Example D9]
< 100 | 88 | NS(=O)(=O)N1CCC2(CC1)C[C@H]2c1noc(-c2ccc(Cl)cc2OC(F)F)n1 [Example D10]
500 to 5000 | 510 | NS(=O)(=O)N1CCC2(CC1)C[C@H]2c1noc(-c2cccc(OC(F)F)c2)n1 [Example D11]
